“And” between values parts separate entries of the source, which are not always exact repeats. Equal values may be shown once.
What was measured:
[1] = test system: NO production in rat primary microglia; experiment: LPS-induced NO production (nitrite) in rat primary microglia; format: cell-based
[2] = test system: NO production in rat resident macrophages; experiment: LPS-/cytokine-induced NO production (nitrite) in rat resident peritoneal macrophages; format: cell-based
[3] = test system: TNF-α production in rat resident macrophages; experiment: LPS-/IFN-γ-induced TNF-α production (ELISA) in rat macrophages; format: cell-based
EAE in female Lewis rats = experiment: Experimental allergic encephalomyelitis (EAE), clinical score; format: in vivo; settings: rat, in vivo
Procedure: Rats were induced with EAE by injecting intradermally 50 μg of myelin basic protein (MBP) per animal emulsified in complete Freund's adjuvant (CFA) into the medial footpad of each hind leg on day 1 followed by a booster injection on the 7th day under ether anesthesia. Clinical symptoms in these rats manifest as an ascending paralysis resulting in death in most animals. The signs of EAE were scored as: (0) normal; (1) piloerection; […] (4) paraplegia; and (5) moribund. […] One group of animals induced for EAE was left untreated while another group of animals was not induced for EAE and used as the control group.

[4] = test system: TNF-α production in rat primary microglia; experiment: LPS-induced TNF-α production (ELISA) in rat primary microglia; format: cell-based
Procedure: Determination of TNF-α and IL-1β in culture supernatants Cells were stimulated with LPS in serum-free media for 24 h in the presence or absence of forskolin or rolipram, and concentrations of TNF-α and IL-1β were measured in culture supernatants by using high-sensitivity enzyme-linked immunosorbent assay (R&D Systems, USA) according to the manufacturer's instructions.

TNF-α = format: in vivo, Lewis rats; settings: rat, in vivo, ip
Procedure: (§1) One group of animals induced for EAE was left untreated while another group of animals was not induced for EAE and used as the control group.
(§2) Immunohistochemistry Brains were fixed in 10% buffered formalin (Stephens Scientific, Riverdale, N.J.). The tissues were embedded in paraffin and sectioned at 4 μm. Sections were then stained for various cytokines and cell markers as described below. For single-label immunohistochemistry, sections were incubated with either anti-iNOS antibody (1:100, rabbit polyclonal, Calbiochem, LaJolla, Calif.) or anti-TNF-α antibody (1:100, rabbit polyclonal, Genzyme, Cambridge, Mass.) or anti-IFN-γ antibody (1:200, rabbit polyclonal, Biosource International, Camarillo, Calif.) essentially as described for other antibodies (Hooper et al., 1997). The tissue sections were further incubated with FITC conjugated anti-rabbit IgG (1:100, Sigma, St. Louis, Mo.), mounted with mounting media (EMS) and analyzed by immunofluorescence microscopy (Olympus) using Adobe photoshop software. For immunofluorescent double-labeling, sections were incubated first with anti-iNOS (1:100) followed by macrophage marker ED1 (1:100, mouse monoclonal, Biosource International, Camarillo, Calif.). Anti-iNOS was visualized using TRITC conjugated anti-rabbit IgG—(1:100, Sigma, St. Louis, Mo.) and ED1 using FITC conjugated anti-mouse IgG (1:100, Sigma, St. Louis, Mo.). […]

[5] = test system: cultured skin fibroblasts of X-ALD; experiment: VLCFA ratios (C26:0/C22:0, C24:0/C22:0) in X-ALD skin fibroblasts; format: cell-based, human
[6] = test system: IL-6 production in rat primary microglia; experiment: LPS-induced IL-6 production (ELISA) in rat primary microglia; format: cell-based
IFN-γ = experiment: Immunohistochemistry of IFN-γ in brain sections of EAE rats; format: in vivo, Lewis rats; settings: rat, in vivo, ip
Procedure: as §1, §2

iNOS = experiment: Immunofluorescence of iNOS in brain sections of EAE rats; format: in vivo, Lewis rats; settings: rat, in vivo, ip
Procedure: as §1, §2

[7] = test system: IL-1β production in rat macrophages; experiment: LPS-induced IL-1β production (ELISA) in rat macrophages; format: cell-based

O=C([O-])Cc1ccccc1.[Na+] [NaPA, sodium salt of phenylacetic acid]
Production of NO [1]: 6.9 ± 0.9 nmol/24 h/mg protein
Production of NO [2]: 9.5 ± 0.7 nmol/24 h/mg protein
Production of TNF-α [3]: 1.7 ± 0.2 ng/24 h/mg protein
protection against EAE disease (EAE in female Lewis rats): protected the rats from the severity of the disease
Production of TNF-α [4]: 1.3 ± 0.2 ng/24 h/mg protein
expression of TNF-α in EAE brain (TNF-α): blocked the induction of TNF-α
ratios of C26:0/C22:0 and C24:0/C22:0 / level of VLCFA [5]: almost to the normal level after 15 days of treatment
Production of IL-6 [6]: 9.3 ± 1.2 ng/24 h/mg protein
expression of IFN-γ in EAE brain (IFN-γ): blocked the induction of IFN-γ
expression of iNOS in EAE brain (iNOS): blocked the ability of MBP to induce the expression of iNOS
Production of IL-1β [7]: 3.1 ± 0.4 ng/24 h/mg protein and 3.1 ± .4 ng/24 h/mg protein

— patent publication US8507219B2, “Method of treating inflammation with statins” (MUSC Foundation for Research Development, priority 1997, dated 2013)
